Tests used:
Assay type in all cases: cell-based
Candida albicans SN250 = test: Fungicidal bioassay (MIC), Candida albicans
Procedure: Bacteria, plasmids and growth conditions. Bacterial strains, plasmids and primers used in this study are described in Table 3 and 4. General chemical and molecular biology reagents were purchased from Sigma-Aldrich or New England Biolabs. Phosphinothricin (glufosinate) was purchased from GoldBio (CAS #77182-82-2). Standard bacterial growth media were prepared as described (Current Protocols in Molecular Biology 2019, 125:e81, e82, e83). E. coli strains were typically grown at 37° C.; P. ananatis strains were typically grown at 30° C. Phosphonate induction media (PIM) was prepared as follows: 8.37 g/L MOPS, 0.72 g/L Tricine, 0.58 g/L NaCl, 0.51 g/L NH4Cl, 1.6 g/L KOH, 0.1 g/L MgCl2·6H2O, 0.05 g/L K2SO4, 0.2 g/L K2HIPO4 were dissolved H2O and steam sterilized for 20 min at 121° C. […]
Fungicidal bioassays. […] Minimum Inhibitory Concentration (MIC) was determined visually by finding the concentration of compound at which there was no visual difference between that concentration and the uninoculated media control.

human cell lines = test: Cytotoxicity profiling against a panel of human cell lines; conditions: human cell lines of Table 2, with the exception of ES-2; read-out: IC50 levels, range for each of the cell lines tested
Procedure: (§1) Cell culture cytotoxicity screening. The compounds were evaluated for their ability to kill cancer cell lines in culture, using HOS (osteosarcoma); ES-2 (ovarian cancer); HCT 116 (colon cancer); A549 (lung carcinoma); and A172 (glioma) cells. Human skin fibroblast cells (HFF-1) were also assessed. Cells were seeded (3000 cells well^−1 for ES-2, HCT 116, A549 and A172; 4000 cells well^−1 for HFF-1 and 2500 cells well^−1 for HOS) in a 96-well plate and allowed to attach overnight. Cells were treated with pantaphos in water. The concentrations of the tested compounds were 5 nM to 100 μM (1% water final; 100 μl well^−1). Raptinal (50 μM) was used as a dead control. On each plate, five technical replicates per compound were performed. 72 hours post-treatment, cell viability was assessed using the Alamar Blue method (http://www.bio-rad-antibodies.com/measuring-cytotoxicity-proliferation-spectrophotometry-fluorescence-alamarBlue.html). Alamar Blue solution (10 μl of 440 μM resazurin in sterile 1×PBS) was added to each well, and the plate was incubated for 3-4 hrs. Conversion of Alamar Blue was measured with a plate reader (SpectraMax M3; Molecular Devices) by fluorescence (excitation wavelength: 555 nm; emission wavelength: 585 nm; cutoff 570 nm; autogain). Percentage death was determined by normalizing to water-treated cells and Raptinal-treated cells. […]

[1] = test system: ES-2 (human ovarian cancer); test: Cell culture cytotoxicity screening (Alamar Blue), ES-2; conditions: for IC50: ES-2, Alamar Blue
Procedure: (§2) FIG. 8. Cytotoxicity of pantaphos across various cancer cell lines. Assays were conducted as described (mBio. 2021 Feb. 2; 12(1):e03402-20), using the Alamar Blue method with 72-hour treatment using Raptinal ([…]) as Dead cell control; n=3. Cell seeding densities: CT26 (colon carcinoma) 2000 c/w; HOS (osteosarcoma) 2500 c/w; ES-2 (ovarian carcinoma), HCT-116 (colorectal carcinoma), A-549 (lung carcinoma), A-172 (glioblastoma), D54 (glioblastoma), U87 (glioblastoma), T98G (glioblastoma), SK-ML-28 (melanoma), MCF-7 (breast cancer), AM38 (glioblastoma) and MDA-MB-231 (breast cancer) 3000 c/w; U118MG (malignant glioma) 4000 c/w; HepG2 (liver cancer) 8000 c/w. c/w=cells per well. IC50 and Emax values shown in Table 6 were extracted from the raw data plotted in FIG. 8.
as §1, with “Alamar Blue solution (10 μl of 440 μM resazurin in sterile 1×PBS) was added to each well, and the plate was incubated for 3-4 hrs.” left out

[2] = test system: HFF-1 (human fibroblast cells); test: Cell culture cytotoxicity screening (Alamar Blue), HFF-1; conditions: HFF-1, Alamar Blue, 72 hours
Procedure: as §1

SK-ML-28 (melanoma) = test: Cytotoxicity profiling (Alamar Blue), SK-ML-28; conditions: Homo sapiens; SK-ML-28, Alamar Blue, 72-hour treatment
Procedure: as §2, with “IC50 and Emax values shown in Table 6 were extracted from the raw data plotted in FIG. 8.” left out
Cell culture cytotoxicity screening. The compounds were evaluated for their ability to kill cancer cell lines in culture, using HOS (osteosarcoma); ES-2 (ovarian cancer); HCT 116 (colon cancer); A549 (lung carcinoma); and A172 (glioma) cells. Human skin fibroblast cells (HFF-1) were also assessed. […] 72 hours post-treatment, cell viability was assessed using the Alamar Blue method (http://www.bio-rad-antibodies.com/measuring-cytotoxicity-proliferation-spectrophotometry-fluorescence-alamarBlue.html). […] Conversion of Alamar Blue was measured with a plate reader (SpectraMax M3; Molecular Devices) by fluorescence (excitation wavelength: 555 nm; emission wavelength: 585 nm; cutoff 570 nm; autogain). […]

O=C(O)/C=C(\C(=O)O)C(O)P(=O)(O)O (stereo not drawn) [pantaphos, 2-(hydroxy(phosphono)methyl)maleate]
MIC (Candida albicans SN250; Candida albicans, SN250, RPMI 1640 medium, 48 hrs growth, CLSI, read-out: MIC, Rich medium): > 125 µM | effect on the growth of fungi, in words (Candida albicans SN250; rich or minimal media): no effect on the growth | IC50 (human cell lines): 6 to 37 µM | IC50 ([1]; 72-hour treatment (Table 6)): > 100 µM | cytotoxicity at the maximum dose, in words ([1]; ES-2, maximum dose): unaffected | IC50 ([1]; Homo sapiens, 72 hours): > 100 µM | IC50 [2]: 6.69 ± 0.29 µM | Emax ([2]; read-out: Emax = percentage cell death (converted)): 85% | Emax (SK-ML-28 (melanoma)): 47 to 51%

— US20250282802A1, “P[…] AND METHODS” (priority 2020, published 2025)
